ChEMBL document CHEMBL4825667, “α-Glucosidase Inhibitors from Ageratina grandifolia” (J Nat Prod, 2021)
Activity calls are given as the source filed them. The calls are words filed in the database; no cut-off is given here.

What was measured:
[1] = Inhibition of yeast Alpha-glucosidase using p-nitro phenyl-alpha-D-glucopyranoside as a substrate measured after 20 mins by spectrophotocolorimetric analysis; set-up: species or system Saccharomyces cerevisiae
Homo sapiens [2] = species on record: Homo sapiens; test: Inhibition of Type-1 alpha glucosidase (unknown origin)
Homo sapiens [3] = species on record: Homo sapiens; test: Inhibition of Type-2 alpha glucosidase (unknown origin)
Saccharomyces cerevisiae [4] = test: Mixed type inhibition of yeast Alpha- glucosidase assessed as decrease in Vmax using varying levels of p-NPG as substrate measured after 20 mins by reciprocal Lineweaver-Burk plot analysis
Saccharomyces cerevisiae [5] = test: Mixed type inhibition of yeast Alpha- glucosidase assessed as increase in Km using varying levels of p-NPG as substrate measured after 20 mins by reciprocal Lineweaver-Burk plot analysis

Compound | IC50 [1] [µM] | also measured
C[C@H]1O[C@H](O[C@H]2[C@H](O)[C@@H](O)[C@@H](O[C@H]3[C@H](O)[C@@H](O)C(O)O[C@@H]3CO)O[C@@H]2CO)[C@H](O)[C@@H](O)[C@@H]1N[C@H]1C=C(CO)[C@@H](O)[C@H](O)[C@H]1O (stereo partly drawn) [ACARBOSE] | 279 | inhibition (Homo sapiens [2]): Active; inhibition (Homo sapiens [3]): Active
O=c1c(O)c(-c2ccc(O)c(O)c2)oc2cc(O[C@@H]3O[C@H](CO)[C@@H](O)[C@H](O)[C@H]3O)c(O)c(O)c12 | 402 | 
O=C(/C=C/c1ccc(O)c(O)c1)OC[C@H]1O[C@@H](Oc2cc3oc(-c4ccc(O)cc4)c(O)c(=O)c3c(O)c2O)[C@H](O)[C@@H](O)[C@@H]1O | 6.94 | 
O=C(/C=C/c1ccc(O)c(O)c1)OC[C@H]1O[C@@H](Oc2cc3oc(-c4ccc(O)c(O)c4)c(O)c(=O)c3c(O)c2O)[C@H](O)[C@@H](O)[C@@H]1O | 0.79 | Vmax (Saccharomyces cerevisiae [4]): 1.42 mM/min; Km (Saccharomyces cerevisiae [5]): 610 µM
COc1cc2c(cc1C(C)OC)C=CC(C)(C)O2 (stereo not drawn) | 404 | 

Continued, in another order:

IC50 [1] [µM] | Compound | also measured
460 | CC(=O)c1ccc2c(c1)C=CC(C)(C)O2 | 
288 | C/C=C(/C)C(=O)O[C@@H](c1cc(C(C)=O)ccc1O)[C@H]1OC1(C)C | 
672 | COc1cc2c(cc1C(C)O)C=CC(C)(C)O2 (stereo not drawn) | 
440 | COc1cc2c(cc1C(C)=O)C=CC(C)(C)O2 [ENCECALIN] | 
